Source: patent publication US7202245B2, “Substituted 4-amino[1,2,4]triazolo[4,3-a] quinoxalines” (Pfizer Inc., priority 2003, dated 2007)

Molecular target: T1, GSK-3 (Homo sapiens, UniProt P49841)
T1 construct: made in house; as in Stambolic et al. 1996
Assay: GSK-3 inhibition, cell-free 33P-ATP peptide substrate assay
Format: biochemical
Details: read-out: inhibitory activity, expressed as IC50's, against GSK-3
Description: The specific activities of the compounds of formula (I) in inhibiting GSK-3 can be determined in both cell-free and cell-based assays, both of which have been previously described in the relevant art. See, for example, U.S. Pat. Nos. 6,417,185 and 6,489,344, the disclosures of which are incorporated herein by reference in their entirety.
A cell-free testing assay can be generally carried out by incubating GSK-3 with a peptide substrate, radiolabeled ATP (e.g., for example, […], both of which are available from Amersham; Arlington Heights, Ill.), magnesium ions, and the compound to be assayed. […] The amount of γ^33P or γ^32P remaining in each well after washing is then quantified to determine the amount of radiolabeled phosphate incorporated into the peptide substrate. […]
Another example of a GSK-3 testing assay, similar to the one described hereinabove, is as follows: enzyme activities are assayed as the incorporation of ^33P from the gamma phosphate of ^33P-ATP (Amersham; Arlington Heights, Ill.; catalog #AH-9968) into biotinylated peptide substrate PKTP-KKAKKL. […] The final concentration of ATP is 0.5 μM (final specific radioactivity of 4 μCi/nmol), and the final concentration of substrate is 0.75 μM. […] Radioactivity associated with the beads is then quantified by standard scintillation counting. […]

T1 sequence (P49841 whole entry): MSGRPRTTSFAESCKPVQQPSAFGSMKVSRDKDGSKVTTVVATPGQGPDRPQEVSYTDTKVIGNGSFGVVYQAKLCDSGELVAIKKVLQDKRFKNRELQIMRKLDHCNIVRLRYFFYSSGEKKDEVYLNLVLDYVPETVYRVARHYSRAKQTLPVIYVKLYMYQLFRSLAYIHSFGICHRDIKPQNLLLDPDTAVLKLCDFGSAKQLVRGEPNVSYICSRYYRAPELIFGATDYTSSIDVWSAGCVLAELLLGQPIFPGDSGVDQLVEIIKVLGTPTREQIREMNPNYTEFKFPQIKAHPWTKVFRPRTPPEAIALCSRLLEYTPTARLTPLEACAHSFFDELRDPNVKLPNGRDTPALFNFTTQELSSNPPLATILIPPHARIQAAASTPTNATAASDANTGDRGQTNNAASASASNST

IC50: 6 nM
Structure (SMILES): O=c1[nH]nc2c(NCCNc3ccc(C(F)(F)F)cn3)nc3ccc(F)cc3n12 [Example 71, 8-Fluoro-4-[2-(5-trifluoromethyl-pyridin-2-Ylamino)-ethylamino]-2H-[1,2,4]triazolo[4,3-a]quinoxalin-1-one]
